According to ChEMBL document CHEMBL1152228, “Using proton nuclear magnetic resonance to study the mode of ribonuclease A inhibition by competitive and noncompetitive inhibitors” (Bioorg Med Chem Lett, 2008):

Biological target: T1, Ribonuclease pancreatic (Homo sapiens, UniProt P07998)
T1 sequence (P07998 whole entry): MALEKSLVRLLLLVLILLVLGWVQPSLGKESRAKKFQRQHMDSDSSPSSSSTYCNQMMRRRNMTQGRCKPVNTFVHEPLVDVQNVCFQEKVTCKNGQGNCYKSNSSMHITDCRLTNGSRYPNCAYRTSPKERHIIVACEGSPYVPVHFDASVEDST
Assay: Inhibition of ribonucleolytic activity of RNase A by agarose gel based assay

| Ki [µM] | SMILES |
| --- | --- |
| 103 | O=C(O)C1CCN([C@H]2[C@H](O)[C@H](n3ccc(=O)[nH]c3=O)O[C@@H]2CO)CC1 |
| 120 | CCOC(=O)C1CCN([C@H]2[C@H](O)[C@H](n3ccc(=O)[nH]c3=O)O[C@@H]2CO)CC1 |
